Laboratory results published in patent publication US20130039871A1, “AQUEOUS COMPOSITION CONTAINED IN CONTAINER” (KAO CORPORATION, priority 2010, published 2013).

Assay: Test 1-3: water evaporation rate of aqueous composition in open dish
Assay type: physicochemical
Details: Test 2
Description: Five grams of each of samples 1 to 15 having components shown in Table 1 were placed in respective dishes having an opening area of 13.85 cm^2 and were left at a humidity of 30% and a temperature of 30° C. Changes in weight of each sample were measured 1, 3, 5, 7, 12, 18, and 24 hr later. The slope of the changes in weight, the n of nX+m (X represents time (hr)) calculated by a least-squares method, was defined as the water evaporation rate (unit: mg/h), and the absolute value thereof was plotted. The test was conducted three times for each sample, and the average value thereof was determined. Note that a lower water evaporation rate means higher inhibition of evaporation.
Changes in weight of samples 15 to 25 shown in Table 3 were measured under the same conditions as in Test 1, and water evaporation rates were determined.
Changes in weight of samples of Examples 1 to 7 and Comparative Examples 1 to 7 having components shown below were measured under the same conditions as in Test 1, and water evaporation rates were determined. In addition, viscosities at 25° C. were measured with a B-type viscometer (Vismetron viscometer: model VS-A1, Rotor No. 1, 12 rotations, 30 sec).

polyoxyethylene(2) behenyl ether [polyoxyethylene behenyl ether]
Amount showing a high water-evaporation inhibiting effect: ≥ 0.2 % by mass
Amount showing a water-evaporation inhibiting effect: ≥ 0.1 % by mass
